# Measurements published in ChEMBL document CHEMBL1201862, “PubChem BioAssay data set” (2004).
#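 These data come from cells grown in 96-well plates and exposed to compound for 48 hours at five concentrations. GI50 marks 50% less growth.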 The source made the active and inactive calls. Rule as the data show it: active = GI50 up to about 1.1 µM and inactive = higher.
# Legend:
# Assay in all cases: NCI tumour cell line growth inhibition, 48 h
# EKVX = tested on: EKVX
# HCT-116 = tested on: HCT-116
# HCT-15 = tested on: HCT-15
# HOP-62 = tested on: HOP-62
# HOP-92 = tested on: HOP-92
# HT-29 = tested on: HT-29
# LOX IMVI = tested on: LOX IMVI
# MOLT-4 = tested on: MOLT-4
# Malme-3M = tested on: Malme-3M
# NCI-H23 = tested on: NCI-H23
# NCI-H522 = tested on: NCI-H522
# RXF 393 = tested on: RXF 393
# SF-268 = tested on: SF-268
# SF-295 = tested on: SF-295
# SF-539 = tested on: SF-539
# SN12C = tested on: SN12C
# SNB-75 = tested on: SNB-75
# SW-620 = tested on: SW-620
# TK-10 = tested on: TK-10
# U-251 = tested on: U-251
SMILES,GI50 (EKVX),GI50 (HCT-116),GI50 (HCT-15),GI50 (HOP-62),GI50 (HOP-92),GI50 (HT-29),GI50 (LOX IMVI),GI50 (MOLT-4),GI50 (Malme-3M),GI50 (NCI-H23),GI50 (NCI-H522),GI50 (RXF 393),GI50 (SF-268),GI50 (SF-295),GI50 (SF-539),GI50 (SN12C),GI50 (SNB-75),GI50 (SW-620),GI50 (TK-10),GI50 (U-251)
CCCCOc1ccc(NC(=N)Nc2ccc(Cl)cc2)cc1,2.37 µM (inactive),0.421 µM (active),9.35 µM,0.235 µM (active),2.58 µM (inactive),0.243 µM (active),3.05 µM (inactive),1.42 µM (inactive),3.47 µM (inactive),1.09 µM (active),5.86 µM (inactive),11.5 µM (inactive),0.92 µM (active),2.3 µM (inactive),0.558 µM (active),0.791 µM (active),4.47 µM (inactive),1.03 µM (active),5.16 µM (inactive),9.68 µM (inactive)
O=C(O)/C(Cc1c[nH]nn1)=N\O,> 100 µM (inactive),> 100 µM (inactive),> 100 µM,> 100 µM (inactive),> 100 µM (inactive),> 100 µM (inactive),> 100 µM (inactive),> 100 µM (inactive),> 100 µM (inactive),> 100 µM (inactive),> 100 µM (inactive),> 100 µM (inactive),> 100 µM (inactive),> 100 µM (inactive),> 100 µM (inactive),> 100 µM (inactive),> 100 µM (inactive),> 100 µM (inactive),> 100 µM (inactive),> 100 µM (inactive)
[N-]=[N+]=CC(=O)COC(=O)c1ccccc1,> 100 µM (inactive),> 100 µM (inactive),> 100 µM,> 100 µM (inactive),78 µM (inactive),> 100 µM (inactive),> 100 µM (inactive),> 100 µM (inactive),> 100 µM (inactive),> 100 µM (inactive),> 100 µM (inactive),> 100 µM (inactive),> 100 µM (inactive),> 100 µM (inactive),> 100 µM (inactive),> 100 µM (inactive),> 100 µM (inactive),> 100 µM (inactive),> 100 µM (inactive),> 100 µM (inactive)
CC(=O)OC1=CC2(OC(C)=O)CC(C)(C)C1C1C(=O)C=CC(=O)C12 (stereo not given),> 68.9 µM (inactive),> 51.3 µM (inactive),> 55.6 µM,> 80.9 µM (inactive),42.5 µM (inactive),19.8 µM (inactive),> 42.1 µM (inactive),> 63.8 µM (inactive),17.6 µM (inactive),> 73.1 µM (inactive),> 36.5 µM (inactive),44.6 µM (inactive),> 63 µM (inactive),> 75 µM (inactive),> 47.1 µM (inactive),> 56.6 µM (inactive),> 64.6 µM (inactive),> 65 µM (inactive),> 100 µM (inactive),> 66.2 µM (inactive)
O=C(c1ccccc1)c1ccc(C(c2c(O)c3ccccc3oc2=O)c2c(O)c3ccccc3oc2=O)cc1,28 µM (inactive),26.7 µM (inactive),30.5 µM,28.7 µM (inactive),18.5 µM (inactive),25.1 µM (inactive),29.9 µM (inactive),19.5 µM (inactive),17.9 µM (inactive),20 µM (inactive),16.6 µM (inactive),27.2 µM (inactive),22.5 µM (inactive),21.2 µM (inactive),30.3 µM (inactive),28.4 µM (inactive),19.1 µM (inactive),43.9 µM (inactive),17.9 µM (inactive),26.6 µM (inactive)
COC(=O)/C=C1/OC(c2ccc(C)cc2)=C(Cl)C1=O,21.3 µM (inactive),11.7 µM (inactive),9.25 µM,19.9 µM (inactive),15.2 µM (inactive),12.9 µM (inactive),9.2 µM (inactive),4.23 µM (inactive),17.7 µM (inactive),19 µM (inactive),9.4 µM (inactive),7.66 µM (inactive),16.4 µM (inactive),19.8 µM (inactive),16.6 µM (inactive),17.9 µM (inactive),16.7 µM (inactive),10.7 µM (inactive),20.5 µM (inactive),12 µM (inactive)
CC(C(=O)OCc1ccccc1)(c1ccco1)N1C(=O)OC(c2ccccc2)C1c1ccccc1 (stereo not given),99.3 µM (inactive),> 100 µM (inactive),> 100 µM,> 100 µM (inactive),> 100 µM (inactive),> 100 µM (inactive),14.7 µM (inactive),5.05 µM (inactive),> 100 µM (inactive),> 100 µM (inactive),> 100 µM (inactive),> 100 µM (inactive),> 100 µM (inactive),> 100 µM (inactive),> 100 µM (inactive),> 100 µM (inactive),> 100 µM (inactive),> 100 µM (inactive),> 100 µM (inactive),> 100 µM (inactive)
